Measured values taken from patent publication US8334287B2 (Hoffmann-La Roche Inc., priority 2009, dated 2012).

Target: T1, human mGlu5a receptor (Homo sapiens, UniProt P41594)
T1 construct: expressed in transfected cells; host or cells: EBNA cells (transient transfection); membranes prepared from them
Assay: mGlu5a receptor binding, displacement of [3H]MPEP
Conditions: competing radioligand [3H]MPEP; human mGlu5a receptor transiently transfected into EBNA cells; Ki=IC50/1+L/Kd
Protocol: For binding experiments, cDNA encoding human mGlu5a receptor was transiently transfected into EBNA cells using a procedure described by E.-J. Schlaeger and K. Christensen (Cytotechnology 1998, 15, 1-13). For functional assays, [Ca^2+]i measurements were performed largely as described previously (Porter et al., Br J. Pharmacol 1999, 128, 13-20) on stably expressed recombinant human mGlu 5a receptors in HEK-293 cells. The cells were dye loaded using Fluo 4-AM (purchased from Molecular Probes, 2 μM final concentration) [Ca^2+]i measurements were performed using a fluorometric imaging plate reader (FLIPR, Molecular Devices Corporation, La Jolla, Calif., USA). Antagonist evaluation was performed following a 5 minute preincubation with the test compounds followed by the addition of a submaximal addition of agonist.
The inhibition (antagonists) curves were fitted with a four parameter logistic equation giving IC50, and Hill coefficient using the iterative non linear curve fitting software Xcel fit.
The Ki values of the compounds tested are given. The Ki value is defined by the following formula: Ki=IC50/1+L/Kd in which the IC50 values are those concentrations of the compounds tested in which causes 50% inhibition of the competing radioligand ([^3H]MPEP). [L] is the concentration of radioligand used in the binding experiment and the Kd value of the radioligand is empiracally determined for each batch of membranes prepared.

T1 sequence (P41594 21-1180 isoform P41594-2 limits assumed): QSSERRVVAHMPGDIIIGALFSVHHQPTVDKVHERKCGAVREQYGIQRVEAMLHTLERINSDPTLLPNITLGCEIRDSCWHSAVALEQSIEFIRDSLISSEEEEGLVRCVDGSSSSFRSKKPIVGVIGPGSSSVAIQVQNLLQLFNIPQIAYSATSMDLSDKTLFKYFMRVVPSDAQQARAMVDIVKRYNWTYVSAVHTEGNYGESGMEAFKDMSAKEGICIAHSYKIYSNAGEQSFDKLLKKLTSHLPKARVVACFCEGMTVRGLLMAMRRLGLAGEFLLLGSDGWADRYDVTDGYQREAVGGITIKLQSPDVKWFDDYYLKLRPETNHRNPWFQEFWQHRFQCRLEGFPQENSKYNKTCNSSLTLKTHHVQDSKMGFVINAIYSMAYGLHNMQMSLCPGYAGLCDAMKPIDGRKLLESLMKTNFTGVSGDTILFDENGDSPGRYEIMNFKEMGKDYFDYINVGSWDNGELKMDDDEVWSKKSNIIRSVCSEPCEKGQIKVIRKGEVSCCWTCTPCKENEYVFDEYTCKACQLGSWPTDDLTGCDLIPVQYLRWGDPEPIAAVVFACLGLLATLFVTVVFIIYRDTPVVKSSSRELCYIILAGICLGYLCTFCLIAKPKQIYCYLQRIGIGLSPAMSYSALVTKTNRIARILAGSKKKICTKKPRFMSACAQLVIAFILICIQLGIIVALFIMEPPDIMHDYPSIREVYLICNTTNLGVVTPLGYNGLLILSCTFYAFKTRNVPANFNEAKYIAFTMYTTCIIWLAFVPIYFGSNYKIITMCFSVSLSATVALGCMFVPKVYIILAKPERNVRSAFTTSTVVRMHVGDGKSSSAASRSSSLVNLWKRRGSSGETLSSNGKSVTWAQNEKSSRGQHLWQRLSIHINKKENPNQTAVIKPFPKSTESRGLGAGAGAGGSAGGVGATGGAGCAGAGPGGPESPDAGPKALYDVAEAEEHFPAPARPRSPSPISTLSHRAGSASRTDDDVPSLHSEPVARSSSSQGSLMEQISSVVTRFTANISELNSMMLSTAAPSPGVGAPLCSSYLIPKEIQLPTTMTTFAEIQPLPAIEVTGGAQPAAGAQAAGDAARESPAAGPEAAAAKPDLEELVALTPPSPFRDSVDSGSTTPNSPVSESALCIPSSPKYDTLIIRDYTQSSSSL

Work on `Cc1nc(C#Cc2ccnc(Cl)c2)cn1-c1cncc(=O)[nH]1` [Example 19, 6-[4-(2-chloro-pyridin-4-ylethynyl)-2-methyl-imidazol-1-yl]-1H-pyrazin-2-one] yielded a Ki of 504 nM.
`COCCn1ncc(-n2cc(C#Cc3cccc(Cl)c3)nc2C)cc1=O` [Example 55, 5-[4-(3-Chloro-phenylethynyl)-2-methyl-imidazol-1-yl]-2-(2-methoxy-ethyl)-2H-pyridazin-3-one] was tested, and the Ki was 93 nM.
Compound `Cc1nc(C#Cc2ccnc(Cl)c2)cn1-c1cccc(=O)n1C` [Example 18, 6-[4-(2-chloro-pyridin-4-ylethynyl)-2-methyl-imidazol-1-yl]-1-methyl-1H-pyridin-2-one] has a Ki of 559 nM.
With `Cc1nc(C#Cc2cccc(F)c2)c(C)n1-c1ccn(C)c(=O)c1` [Example 41, 4-[4-(3-fluoro-phenylethynyl)-2,5-dimethyl-imidazol-1-yl]-1-methyl-1H-pyridin-2-one] the Ki was 52 nM.
In the case of `CCn1ccc(-n2cc(C#Cc3cccc(Cl)c3)nc2C)cc1=O` [Example 3, 4-[4-(3-chloro-phenylethynyl)-2-methyl-imidazol-1-yl]-1-ethyl-1H-pyridin-2-one], the Ki is reported as 39 nM.
Compound `CCOC(=O)Cn1ccc(-n2cc(C#Cc3cccc(C)c3)nc2C)cc1=O` [Example 13, [4-(2-Methyl-4-m-tolylethynyl-imidazol-1-yl)-2-oxo-2H-pyridin-1-yl]-acetic acid ethyl ester] has a Ki of 94 nM.
`Cc1nc(C#Cc2cccc(Cl)c2)cn1-c1cnn(C)c(=O)c1` [Example 21, 5-[4-(3-chloro-phenylethynyl)-2-methyl-imidazol-1-yl]-2-methyl-2H-pyridazin-3-one] gave a Ki of 40 nM.
`Cc1nc(C#Cc2ccnc(Cl)c2)cn1-c1cc(=O)n(C)cn1` [Example 24, 6-[4-(2-chloro-pyridin-4-ylethynyl)-2-methyl-imidazol-1-yl]-3-methyl-3H-pyrimidin-4-one] showed a Ki of 277 nM.
With `Cc1nc(C#Cc2cccc(Cl)c2)c(C)n1-c1ccn(CCO)c(=O)c1` [Example 28, 4-[4-(3-chloro-phenylethynyl)-2,5-dimethyl-imidazol-1-yl]-1-(2-hydroxy-ethyl)-1H-pyridin-2-one] the Ki was 222 nM.
In the case of `Cc1cccc(C#Cc2cn(-c3ccn(CS(C)(=O)=O)c(=O)c3)c(C)n2)c1` [Example 50], the Ki is reported as 559 nM.
`Cc1nc(C#Cc2ccnc(Cl)c2)cn1-c1cncc(=O)n1C` [Example 20, 6-[4-(2-chloro-pyridin-4-ylethynyl)-2-methyl-imidazol-1-yl]-1-methyl-1H-pyrazin-2-one] gave a Ki of 817 nM.
`CCn1ncc(-n2cc(C#Cc3ccnc(Cl)c3)nc2C)cc1=O` [Example 53, 5-[4-(2-chloro-pyridin-4-ylethynyl)-2-methyl-imidazol-1-yl]-2-ethyl-2H-pyridazin-3-one] showed a Ki of 204 nM.
`CCn1ccc(-n2cc(C#Cc3cccc(C)c3)nc2C)cc1=O` [Example 10, 1-Ethyl-4-(2-methyl-4-m-tolylethynyl-imidazol-1-yl)-1H-pyridin-2-one] gave a Ki of 75 nM.
For `COCCn1ncc(-n2cc(C#Cc3cccc(C)c3)nc2C)cc1=O` [Example 54, 2-(2-methoxy-ethyl)-5-(2-methyl-4-m-tolylethynyl-imidazol-1-yl)-2H-pyridazin-3-one], the Ki was 131 nM.
Work on `Cc1nc(C#Cc2cccc(Cl)c2)c(C)n1-c1cnn(C)c(=O)c1` [Example 42, 5-[4-(3-chloro-phenylethynyl)-2,5-dimethyl-imidazol-1-yl]-2-methyl-2H-pyridazin-3-one] yielded a Ki of 38 nM.
Compound `COCCn1ccc(-n2c(C)nc(C#Cc3cccc(Cl)c3)c2C)cc1=O` [Example 29, 4-[4-(3-chloro-phenylethynyl)-2,5-dimethyl-imidazol-1-yl]-1-(2-methoxy-ethyl)-1H-pyridin-2-one] has a Ki of 58 nM.
Work on `COCCn1ccc(-n2c(C)nc(C#Cc3cccc(C)c3)c2C)cc1=O` [Example 34, 4-[2,5-dimethyl-4-m-tolylethynyl-imidazol-1-yl]-1-(2-methoxy-ethyl)-1H-pyridin-2-one] yielded a Ki of 87 nM.
In the case of `COCCn1ncc(-n2cc(C#Cc3ccnc(Cl)c3)nc2C)cc1=O` [Example 56], the Ki is reported as 597 nM.
Work on `Cc1nc(C#Cc2cccc(Cl)c2)cn1-c1cccc(O)n1` [Example 14, 6-[4-(3-chloro-phenylethynyl)-2-methyl-imidazol-1-yl]-pyridin-2-ol] yielded a Ki of 42 nM.
With `Cc1cccc(C#Cc2cn(-c3ccn(C)c(=O)c3)c(C)n2)c1` [Example 9, 1-Methyl-4-(2-methyl-4-m-tolylethynyl-imidazol-1-yl)-1H-pyridin-2-one] the Ki was 42 nM.
Work on `CNC(=O)Cn1ccc(-n2cc(C#Cc3cccc(C)c3)nc2C)cc1=O` [Example 48, N-methyl-2-[4-(2-methyl-4-m-tolylethynyl-imidazol-1-yl)-2-oxo-2H-pyridin-1-yl]-acetamide] yielded a Ki of 788 nM.
`Cc1nc(C#Cc2cccc(Cl)c2)cn1-c1ccn(C)c(=O)c1` [Example 2, 4-[4-(3-chloro-phenylethynyl)-2-methyl-imidazol-1-yl]-1-methyl-1H-pyridin-2-one] showed a Ki of 69 nM.
In the case of `CCn1ccc(-n2c(C)nc(C#Cc3ccnc(Cl)c3)c2C)cc1=O` [Example 37, 4-[4-(2-chloro-pyridin-4-ylethynyl)-2,5-dimethyl-imidazol-1-yl]-1-ethyl-1H-pyridin-2-one], the Ki is reported as 238 nM.
In the case of `Cc1cccc(C#Cc2nc(C)n(-c3cc[nH]c(=O)c3)c2C)c1` [Example 30, 4-(2,5-dimethyl-4-m-tolylethynyl-imidazol-1-yl)-1H-pyridin-2-one], the Ki is reported as 211 nM.
For `Cc1nc(C#Cc2ccnc(Cl)c2)c(C)n1-c1cc[nH]c(=O)c1` [Example 35, 4-[4-(2-chloro-pyridin-4-ylethynyl)-2,5-dimethyl-imidazol-1-yl]-1H-pyridin-2-one], the Ki was 347 nM.
For `Cc1nc(C#Cc2ccnc(Cl)c2)cn1-c1ccn(C)c(=O)c1` [Example 7, 4-[4-(2-chloro-pyridin-4-ylethynyl)-2-methyl-imidazol-1-yl]-1-methyl-1H-pyridin-2-one], the Ki was 180 nM.
For `CCn1ncc(-n2cc(C#Cc3cccc(C)c3)nc2C)cc1=O` [Example 51, 2-ethyl-5-(2-methyl-4-m-tolylethynyl-imidazol-1-yl)-2H-pyridazin-3-one], the Ki was 53 nM.
In the case of `CCn1ccc(-n2c(C)nc(C#Cc3cccc(Cl)c3)c2C)cc1=O` [Example 27, 4-[4-(3-chloro-phenylethynyl)-2,5-dimethyl-imidazol-1-yl]-1-ethyl-1H-pyridin-2-one], the Ki is reported as 40 nM.
`Cc1nc(C#Cc2cccc(Cl)c2)c(C)n1-c1cc[nH]c(=O)c1` [Example 25, 4-[4-(3-chloro-phenylethynyl)-2,5-dimethyl-imidazol-1-yl]-1H-pyridin-2-one] gave a Ki of 148 nM.
`Cc1nc(C#Cc2ccnc(Cl)c2)cn1-c1cccc(O)n1` [Example 17, 6-[4-(2-chloro-pyridin-4-ylethynyl)-2-methyl-imidazol-1-yl]-pyridin-2-ol] showed a Ki of 144 nM.
`Cc1cccc(C#Cc2nc(C)n(-c3ccn(C)c(=O)c3)c2C)c1` [Example 31, 4-[2,5-dimethyl-4-m-tolylethynyl-imidazol-1-yl]-1-methyl-1H-pyridin-2-one] showed a Ki of 61 nM.
For `COCCn1ccc(-n2cc(C#Cc3cccc(C)c3)nc2C)cc1=O` [Example 12, 1-(2-Methoxy-ethyl)-4-(2-methyl-4-m-tolylethynyl-imidazol-1-yl)-1H-pyridin-2-one], the Ki was 40 nM.
`Cc1cccc(C#Cc2cn(-c3cnn(C)c(=O)c3)c(C)n2)c1` [Example 23, 2-Methyl-5-(2-methyl-4-m-tolylethynyl-imidazol-1-yl)-2H-pyridazin-3-one] was tested, and the Ki was 52 nM.
Work on `Cc1nc(C#Cc2cccc(Cl)c2)cn1-c1cc[nH]c(=O)c1` [Example 1, 4-[4-(3-chloro-phenylethynyl)-2-methyl-imidazol-1-yl]-1H-pyridin-2-one] yielded a Ki of 40 nM.
`Cc1cccc(C#Cc2nc(C)n(-c3cnn(C)c(=O)c3)c2C)c1` [Example 44, 5-(2,5-dimethyl-4-m-tolylethynyl-imidazol-1-yl)-2-methyl-2H-pyridazin-3-one] gave a Ki of 71 nM.
Work on `Cc1nc(C#Cc2ccnc(Cl)c2)c(C)n1-c1cc(=O)n(C)cn1` [Example 46, 6-[4-(2-chloro-pyridin-4-ylethynyl)-2,5-dimethyl-imidazol-1-yl]-3-methyl-3H-pyrimidin-4-one] yielded a Ki of 569 nM.
`Cc1nc(C#Cc2ccnc(Cl)c2)cn1-c1cc[nH]c(=O)c1` [Example 6, 4-[4-(2-chloro-pyridin-4-ylethynyl)-2-methyl-imidazol-1-yl]-1H-pyridin-2-one] gave a Ki of 146 nM.
Work on `CCn1ncc(-n2cc(C#Cc3cccc(Cl)c3)nc2C)cc1=O` [Example 52, 5-[4-(3-Chloro-phenylethynyl)-2-methyl-imidazol-1-yl]-2-ethyl-2H-pyridazin-3-one] yielded a Ki of 37 nM.
`Cc1cccc(C#Cc2nc(C)n(-c3cc(=O)n(C)cn3)c2C)c1` [Example 45, 6-(2,5-dimethyl-4-m-tolylethynyl-imidazol-1-yl)-3-methyl-3H-pyrimidin-4-one] gave a Ki of 74 nM.
`Cc1cccc(C#Cc2nc(C)n(-c3ccn(CCO)c(=O)c3)c2C)c1` [Example 33, 4-[2,5-dimethyl-4-m-tolylethynyl-imidazol-1-yl]-1-(2-hydroxy-ethyl)-1H-pyridin-2-one] gave a Ki of 446 nM.
`COCCn1ncc(-n2c(C)nc(C#Cc3ccnc(Cl)c3)c2C)cc1=O` [Example 57, 5-[4-(2-Chloro-pyridin-4-ylethynyl)-2,5-dimethyl-imidazol-1-yl]-2-(2-methoxy-ethyl)-2H-pyridazin-3-one] was tested, and the Ki was 808 nM.
